Assay results reported in patent US7956072B2, “Agent for repairing corneal sensitivity containing amide compound” (Senju Pharmaceutical Co., Ltd., priority 2004, dated 2011).
“Also recorded” adds a separate entry of the source.

How the values were obtained:
[1] = system: rabbit corneal hyposensitivity model; assay: Improving effect on rabbit corneal hyposensitivity using microkeratome (corneal flap model, Cochet-Bonnet corneal sensitivity meter); format: in vivo; conditions: 0.01% instillation; for recovery of corneal sensitivity relative to control group: 50 μL 4 times a day for 1 week or 2 weeks after corneal flap preparation, measured weekly 1 to 8 weeks postsurgery, hydrochloride
Protocol: Japanese white rabbits (body weight 2.5-3.0 kg) purchased from Japan SLC were used. The animals were housed separately in cages in a room set to room temperature 23±3° C., humidity 55±10%, 12 hr light cycle (light on 8 am, light off on 8 pm) from arrival to the end of the test. A limited amount of a solid feed (Labo R-stock, Nosan Corporation, 100 g for one day) was given to the animals and a free access to tap water was allowed.
As the test substance, compound 1 was used. Compound 1 was dissolved in the following base solution to 0.01% and administered by instillation. The base solution was administered to the control group by instillation.
Prior to the start of the test, the anterior segment of eye of the animal was visually observed and cornea stained marks by fluorescein was observed, and the rabbits showing no abnormality in them were selected. Using Cochet-Bonnet corneal sensitivity meter (manufactured by LUNEAU), the initial value of corneal sensitivity was measured.
Intramuscular injection (0.9 mL/kg) of a Celactal (2% xylazine):Ketalar (5% ketamine)=0.5:1 mixture was given to the animals to perform systemic anesthesia, and the eyeball was sufficiently exposed. Using microkeratome (MK2000, Nidek) attached a rabbit eye adaptor inside a suction ring, a corneal flap (diameter 8.5 mm) was prepared with a 130 μm thick blade (Arbelaez M C. et al., J. Refract Surg., 2002 May-Jun. 18 (3 Suppl): S357-60). The corneal flap was certainly put back into position under a microscope, and the animal was woken up from the anesthesia while observing the animal to prevent displacement of the flap. […]
The corneal sensitivity was measured using a Cochet-Bonnet corneal sensitivity meter once every week from one to eight weeks after the surgery. […]
For statistical analysis, a parametric Dunnett multiple comparisons test (one sided) (SAS preclinical package; Version 5.0, SAS Institute Japan) was used and a risk of less than 5% was evaluated as significant.

[2] = system: cultured rabbit trigeminal nerve cells; assay: Promoting effect on neuritogenesis in cultured rabbit trigeminal nerve cell; format: cell-based; conditions: compound 1 final concentration 1 μM, 48 hr of culture
From the text: Japanese White rabbits (2-3 days old) purchased from KITAYAMA LABES Co., Ltd. were used.
The trigeminal nerve cell was isolated according to the report of Chan et al. (Chan, Kuan Y. and Haschke, Richard H., Exp. Eye Res., 41: 687-699, 1985). To be specific, under ether anesthesia, after cardiac perfusion with saline, the trigeminal ganglia was removed, dispersed using a nerve dispersion solution (SUMITOMO BAKELITE Co., Ltd.) to give a cell suspension. […]
After 48 hr of culture, the cells were fixed with 4% paraformaldehyde at room temperature for 2 hr, and nerve cell body and neurite were fluorescence stained using an anti-neurofilament 200 antibody (Sigma) that specifically recognizes neurofilaments which are intermediate filaments specific to a nerve cell and a fluorescent secondary antibody reactive therewith.
The stained cells were imported as images from a fluorescence microscope into a computer and the cell body diameter and neurite length of the imported cell images were measured using an image analysis software (Image-Pro Plus ver. 4.0, Planetron. Inc.). The cells of 3 wells were measured for each of the compound 1 addition group and the control group. The cells having a neurite with a length of not less than twice the diameter of a cell body were taken as neuritogenetic cells, and the percentage (%) of the neuritogenetic cells in the total cells measured was calculated.

`C[C@@H](N)c1ccc(C(=O)Nc2ccnc3[nH]ccc23)cc1.Cl` [compound 1, (R)-(+)-N-(1H-pyrrolo[2,3-b]pyridin-4-yl)-4-(1-aminoethyl)benzamide 1 hydrochloride] was tested. Which “corneal sensitivity compared to control group (statistical analysis)” value ([1]; 1-week administration group, at 5 week postsurgery, Dunnett test, p<0.05) did it give?
Its value is “significantly high”.

And the “recovery of corneal sensitivity relative to control group” value [1]?
Its value is “has an effect of promoting the recovery of corneal hyposensitivity”.

And the “recovery of corneal sensitivity relative to control group” value ([1]; listed as test substance)?
Its value is “better recovery of corneal sensitivity than in the control group”.

What about the “neuritogenesis of cultured trigeminal nerve cells (fluorescence microscope observation)” value ([2]; anti-neurofilament 200 staining, hydrochloride) of the same compound?
The value was “many cells having a long-extended neurite were observed; also recorded: promotes neuritogenesis”.

And the “percentage (%) of the neuritogenetic cells in the total cells measured” value ([2]; N=3, mean, control group 24%, p<0.001 vs control)?
The value was 54.6%.
